Assays:
[1] = target: T1, amyloid β-protein (human, 1-40) (Homo sapiens, UniProt P05067); test: Effect of drugs on the amyloid formation of amyloid β-protein (Thioflavine T method); assay type: biochemical; details: read-out: IC50 value (50% inhibition concentration of amyloid formation)
Experimental: Thereafter, the quantity of amyloid formation was measured by the Thioflavine T method (Naiki et al., Lab Invest, 65, 104-110, 1991). The measured value was converted to a relative value (%) based on the quantity of amyloid formation in the drug-non-added control group, and then 50% inhibition concentration (IC50 value) of amyloid formation was calculated.

Amyrin = target: T2, Amyrin (Homo sapiens, UniProt P10997); test: Effect on amyloid formation of various amyloid forming proteins (Thioflavine T method): Amyrin; assay type: biochemical; details: Amyrin 10 μM, PBS(−), room temperature, sampled next day; read-out: IC50 (50% inhibition concentration of amyloid formation), Amyrin
T2 construct: Amyrin (10 μM; purchased from Bachem), as an amyloid forming protein; purchased Bachem
T2 sequence (P10997 34-70 limits assumed): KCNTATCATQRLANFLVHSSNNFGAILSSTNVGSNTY

[2] = target: T1, amyloid β-protein (human, 1-40); test: Effect on amyloid formation of various amyloid forming proteins (Thioflavine T method): Aβ1-40; assay type: biochemical; details: Aβ1-40 10 μM, PBS(−), room temperature, sampled next day; read-out: IC50 (50% inhibition concentration of amyloid formation), Aβ1-40
[3] = target: partial fragment of prion protein (PrP 118-135) (Homo sapiens, UniProt P04156); test: biochemical
[4] = target: Amyloid β-protein (human, 1-42) (Homo sapiens, UniProt P05067); test: Effect on amyloid formation of various amyloid forming proteins (Thioflavine T method): Aβ1-42; assay type: biochemical; details: Aβ1-42 10 μM, PBS(−), room temperature, sampled next day; read-out: IC50 (50% inhibition concentration of amyloid formation), Aβ1-42
[5] = system: amyloid (senile plaque) in human Alzheimer disease brain sections; test: Specific binding to amyloid in Alzheimer disease brain sections (fluorescence microscopy); details: 50 μM in TBS, formalin-fixed human Alzheimer disease brain sections, fluorescence microscope
Experimental: Specific Binding to Amyloid
The compound of Example 21 having fluorescence was dissolved in TBS at a concentration of 50 μM and incubated with formalin-fixed human Alzheimer disease brain sections (purchased from BioChain). Thereafter, the sections were washed with saturated lithium carbonate/40% ethanol, dried and then observed under a fluorescence microscope.
Thus, it was shown that the compound of the present invention can specifically bind to amyloid in the Alzheimer brain.

[6] = 15 μM amyloid β-protein (human, 1-40), PBS(−), room temperature, 1 day, drug 1.6, 8 or 40 μM

T1 sequence (P05067 18-40): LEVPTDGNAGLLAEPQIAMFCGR
Chain of Amyloid β-protein (human, 1-42) (P05067 18-42): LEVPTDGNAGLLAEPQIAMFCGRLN

SMILES: Nc1c(/N=N/c2ccc(-c3ccc(/N=N/c4cc(S(=O)(=O)O)c5ccccc5c4N)cc3)cc2)cc(S(=O)(=O)O)c2ccccc12 [Congo Red, Congo red, reference compound]
- IC50 [1, 6]: 870 nM

SMILES: CC(=C(C#N)C#N)c1ccc2cc(N(C)C)ccc2c1 [DDNP]
- IC50 [1]: 3230 nM

SMILES: C(=NNc1ccc(-c2cnco2)cc1)c1ccncc1 [Example 3, 4-Pyridinecarboxyaldehyde 4-(oxazol-5-yl)phenylhydrazone]
- IC50 (Amyrin): 2080 nM
- IC50 [2]: 1160 nM
- IC50 [3]: 1970 nM
- IC50 [1, 6]: 2940 nM
- IC50 [4]: 700 nM

SMILES: Cc1ccc2nc(-c3ccc(N/N=C/c4ccncc4)cc3)sc2c1 [Example 21, 4-Pyridinecarboxyaldehyde 4-(6-methylbenzothiazol-2-yl)phenylhydrazone]
- Fluorescence binding to amyloid in brain sections [5]: accumulation of fluorescence was found in the senile plaque

Reference: US20060276433A1, “Hydrazone derivative” (priority 2003, published 2006)
